Assay results as given in patent US20070026072A1, “Benzoquinones of enhanced bioavailability” (priority 2005, published 2007).

Columns and labels:
[1] = Crystallinity of CoQ10 by modulated differential scanning calorimetry (MDSC); assay type: physicochemical; conditions: Example 6, 20% total solids; MDSC heat-only, aluminum hermetic pans
From the text: Four spray dried powders were made containing CoQ10 and two solubility-enhancing polymers at two CoQ10:polymer ratios for each polymer.

[2] = Dissolution, USP apparatus II (paddles), media containing Cremophor EL and 4% Acconon MC8; assay type: physicochemical; conditions: Example 6
Experimental: Dissolution properties were measured on the four spray dried powders of Example 1, crystalline CoQ10 and two commercial CoQ10 products (one soft gel and one dry powder capsule). All non-commercial samples were hand-filled into size 1 gelatin capsules (Shinogi Qualicaps). USP apparatus II (paddles) (VK 70100®, Varian Inc.) was used, with a bath temperature of 37° C. at 50 rpm for the first 60 minutes and then 200 rpm for an additional 15 minutes. The media contained Cremophoro EL (BASF Corp.), and 4% Acconono® MC8 (Abitec Corp.). Analysis was performed using high pressure liquid chromatography (HPLC) with UV detection (SCL-10 controller with SPD-10A detector module, Shimadzu Scientific Instruments)

[3] = dissolution method of Example 2

For `COC1=C(OC)C(=O)C(C/C=C(\C)CC/C=C(\C)CC/C=C(\C)CC/C=C(\C)CC/C=C(\C)CC/C=C(\C)CC/C=C(\C)CC/C=C(\C)CC/C=C(\C)CCC=C(C)C)=C(C)C1=O` [CoQ10 (as received), Coenzyme Q10], the crystallinity [1] was 100%, the “t50% (time for 50% CoQ10 dissolution)” value [2, 3] was “not attained” and the “t80% (time for 80% CoQ10 dissolution)” value [2, 3] was “not attained”. For the same compound, the “max. CoQ10 release” value ([2]; dissolution method of Example 2, 75 minutes) was 4.3%.
